Source: PubChem BioAssay AID1963838 (Molecular Pharmacology Branch, DTP, NCI, 2024)

System: 855422-203-R-J1-PDC complex spheroid viability
Experiment: Anticancer human tumor 855422-203-R-J1-PDC patient-derived bladder carcinoma cell line growth inhibition [POLQ]
Settings: for IC50: curve of first compound; for viability, T/C: stronger effect = lower value
Procedure, shortened: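 Complex spheroid viability model combining PDC tumour cells with endothelial (HUVEC) and MSC stromal cells. Novobiocin, ART-558 or RP6685 were tested singly and in combination with standard and investigational anticancer drugs. Each was titrated in half-log steps from near clinical Cmax, or from 10 microM where Cmax was unknown.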

[1] = second compound 0.0316 µM, first compound 0.0316 µM
[2] = second compound 0.0316 µM, first compound 0.1 µM
[3] = second compound 0.0316 µM, first compound 0.316 µM
[4] = second compound 0.0316 µM, first compound 1 µM
[5] = second compound 0.0316 µM, first compound 3.16 µM
[6] = second compound 0.0316 µM, first compound 10 µM
[7] = second compound 0.1 µM, first compound 0.0316 µM
[8] = second compound 0.1 µM, first compound 0.1 µM
[9] = second compound 0.1 µM, first compound 0.316 µM
[10] = second compound 0.1 µM, first compound 1 µM
[11] = second compound 0.1 µM, first compound 3.16 µM
[12] = second compound 0.1 µM, first compound 10 µM
[13] = second compound 0.316 µM, first compound 0.0316 µM
[14] = second compound 0.316 µM, first compound 0.1 µM
[15] = second compound 0.316 µM, first compound 0.316 µM
[16] = second compound 0.316 µM, first compound 1 µM
[17] = second compound 0.316 µM, first compound 3.16 µM
[18] = second compound 0.316 µM, first compound 10 µM
[19] = second compound 1 µM, first compound 0.0316 µM
[20] = second compound 1 µM, first compound 0.1 µM
[21] = second compound 1 µM, first compound 0.316 µM
[22] = second compound 1 µM, first compound 1 µM
[23] = second compound 1 µM, first compound 3.16 µM
[24] = second compound 1 µM, first compound 10 µM
[25] = second compound 3.16 µM, first compound 0.0316 µM
[26] = second compound 3.16 µM, first compound 0.1 µM
[27] = second compound 3.16 µM, first compound 0.316 µM
[28] = second compound 3.16 µM, first compound 1 µM
[29] = second compound 3.16 µM, first compound 3.16 µM
[30] = second compound 3.16 µM, first compound 10 µM
[31] = second compound 10 µM, first compound 0.0316 µM
[32] = second compound 10 µM, first compound 0.1 µM
[33] = second compound 10 µM, first compound 0.316 µM
[34] = second compound 10 µM, first compound 1 µM
[35] = second compound 10 µM, first compound 3.16 µM
[36] = second compound 10 µM, first compound 10 µM
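Also: spheroids exposed to compounds for seven days before readout.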

CC1COCCN1c1cc(C2(O)CC3CCC(C2)O3)c2cnn(-c3ccn[nH]3)c2n1 (stereo unspecified) + Nc1ccc(C#CCN(C(=O)Cc2ncc(C(F)(F)F)cc2C(F)(F)F)c2ccc(F)cc2)nn1
IC50 (second compound 0.0316 µM): 0.217 µM | IC50 (second compound 0.1 µM): 0.194 µM | IC50 (second compound 0.316 µM): 0.174 µM | IC50 (second compound 1 µM): 0.17 µM | IC50 (second compound 3.16 µM): 0.147 µM | IC50 (second compound 10 µM): 0.0989 µM | viability, T/C [1]: 111% | viability, T/C [2]: 105% | viability, T/C [3]: 23.2% | viability, T/C [4]: 12.7% | viability, T/C [5]: 11.1% | viability, T/C [6]: 7.13% | viability, T/C [7]: 139% | viability, T/C [8]: 84% | viability, T/C [9]: 24.7% | viability, T/C [10]: 12% | viability, T/C [11]: 11.2% | viability, T/C [12]: 5.82% | viability, T/C [13]: 117% | viability, T/C [14]: 78.9% | viability, T/C [15]: 18.5% | viability, T/C [16]: 13.2% | viability, T/C [17]: 12% | viability, T/C [18]: 5.73% | viability, T/C [19]: 104% | viability, T/C [20]: 72.7% | viability, T/C [21]: 23.1% | viability, T/C [22]: 10.9% | viability, T/C [23]: 10.2% | viability, T/C [24]: 5.09% | viability, T/C [25]: 107% | viability, T/C [26]: 69% | viability, T/C [27]: 12.6% | viability, T/C [28]: 14.6% | viability, T/C [29]: 9.39% | viability, T/C [30]: 5.42% | viability, T/C [31]: 151% | viability, T/C [32]: 48.6% | viability, T/C [33]: 17% | viability, T/C [34]: 11.1% | viability, T/C [35]: 9.46% | viability, T/C [36]: 4.88%

CCc1cc2c(N3CCc4c(cc(Cn5ccnc5)cc4-c4cn(C)nc4C(F)(F)F)C3=O)ccnc2c(OC)n1 + Nc1ccc(C#CCN(C(=O)Cc2ncc(C(F)(F)F)cc2C(F)(F)F)c2ccc(F)cc2)nn1
IC50 (second compound 0.0316 µM): 9.24 µM | IC50 (second compound 0.1 µM): 9.09 µM | IC50 (second compound 0.316 µM): 6.82 µM | IC50 (second compound 1 µM): 8.55 µM | IC50 (second compound 3.16 µM): 7.63 µM | IC50 (second compound 10 µM): 6.77 µM | viability, T/C [1]: 107% | viability, T/C [2]: 142% | viability, T/C [3]: 133% | viability, T/C [4]: 93.7% | viability, T/C [5]: 87% | viability, T/C [6]: 46.4% | viability, T/C [7]: 125% | viability, T/C [8]: 142% | viability, T/C [9]: 130% | viability, T/C [10]: 93.1% | viability, T/C [11]: 76.3% | viability, T/C [12]: 45.8% | viability, T/C [13]: 136% | viability, T/C [14]: 147% | viability, T/C [15]: 133% | viability, T/C [16]: 88.1% | viability, T/C [17]: 72.6% | viability, T/C [18]: 39.4% | viability, T/C [19]: 98.1% | viability, T/C [20]: 121% | viability, T/C [21]: 109% | viability, T/C [22]: 115% | viability, T/C [23]: 72.2% | viability, T/C [24]: 46.5% | viability, T/C [25]: 148% | viability, T/C [26]: 131% | viability, T/C [27]: 125% | viability, T/C [28]: 124% | viability, T/C [29]: 72.6% | viability, T/C [30]: 43.1% | viability, T/C [31]: 98.9% | viability, T/C [32]: 122% | viability, T/C [33]: 112% | viability, T/C [34]: 111% | viability, T/C [35]: 72.6% | viability, T/C [36]: 38.5%

O=C(Nc1ccc(O)c(NS(=O)(=O)c2ccc(F)cc2)c1)c1ccc(-c2ccccc2)cc1 + Nc1ccc(C#CCN(C(=O)Cc2ncc(C(F)(F)F)cc2C(F)(F)F)c2ccc(F)cc2)nn1
IC50 (second compound 0.0316 µM): > 10 µM | IC50 (second compound 0.1 µM): > 10 µM | IC50 (second compound 0.316 µM): > 10 µM | IC50 (second compound 1 µM): > 10 µM | IC50 (second compound 3.16 µM): > 10 µM | IC50 (second compound 10 µM): > 10 µM | viability, T/C [1]: 93.4% | viability, T/C [2]: 119% | viability, T/C [3]: 108% | viability, T/C [4]: 88.1% | viability, T/C [5]: 105% | viability, T/C [6]: 77.5% | viability, T/C [7]: 95.5% | viability, T/C [8]: 105% | viability, T/C [9]: 94.5% | viability, T/C [10]: 103% | viability, T/C [11]: 117% | viability, T/C [12]: 63.8% | viability, T/C [13]: 91.3% | viability, T/C [14]: 114% | viability, T/C [15]: 102% | viability, T/C [16]: 99.2% | viability, T/C [17]: 106% | viability, T/C [18]: 77.4% | viability, T/C [19]: 92.8% | viability, T/C [20]: 92.8% | viability, T/C [21]: 95.5% | viability, T/C [22]: 95.2% | viability, T/C [23]: 112% | viability, T/C [24]: 73.6% | viability, T/C [25]: 93.6% | viability, T/C [26]: 94.2% | viability, T/C [27]: 91.3% | viability, T/C [28]: 96.3% | viability, T/C [29]: 93.7% | viability, T/C [30]: 62.2% | viability, T/C [31]: 92% | viability, T/C [32]: 90.1% | viability, T/C [33]: 89.2% | viability, T/C [34]: 88.7% | viability, T/C [35]: 95.1% | viability, T/C [36]: 51.5%
